Experimental findings from patent US10174015B2, “Substituted heterocyclic derivative, preparation method and use thereof” (Xiamen University, priority 2014, dated 2019) are described below.

Series [1] relates to adjuvant-induced arthritis rat models. Description: Adjuvant-induced osteoarthritis pain, foot swelling degree. In kind it is in vivo, rats. To be noted: X ± S, n = 10, 10 mg/Kg. Here is the method:
Typical model for studying inflammatory pain medically was used to evaluate the therapeutic effects of compounds on inflammatory pain. 0.1 mL Freund's complete adjuvant was intradermally injected to toe of the left hind foot of the rats in each group to obtain adjuvant-induced arthritis rat models. Foot volume method was used to measure primary and secondary foot swelling degree (swelling degree=volume after inflammation−volume before inflammation), and polyarticular arthritis were scored (5 scoring grades: 0 represents no red swelling; 4 represents red swelling at all the paws including anklebone. The scores are accumulated according to the lesion degree of the rest three limbs not injected with adjuvant, and the highest score is 12). Before inflammation and at 6 h, 12 h, 18 h and 24 h after inflammation, Paw Volume Meter was used to measure the foot volume at the inflammatory side, and the swelling degree was calculated. The model can represent inflammatory pain including, but not only limited to: osteoarthritis pain and fibromyalgia syndrome, inflammatory pain of rheumatic and rheumatoid arthritis, inflammatory pain of endometriosis, inflammatory toothache, ankylosing spondylitis pain, and gouty arthritis pain.

The subject of series [2] is zebrafish embryos. The series is classed as in vivo. To be noted: for Death number (72 h): n = 30; for Body length (72 h) / Hatching number (72 h) / Heartbeat (72 h) / Unhatching number (72 h) / hatching rate: zebrafish, in vivo. Here is the method:
By the same method described above, zebrafish fertilized eggs were cultured. 7 Groups were set for each test compound, including 5 experimental groups relating to the test compound at different concentrations (solutions containing the test compound at different concentrations were prepared by using zebrafish embryo culture medium, wherein the concentrations were 100 mg/L, 10 mg/L, 1 mg/L, 0.1 mg/L, 0.01 mg/L), 1 solvent control group (DMSO) and 1 blank control group. The fertilized eggs were placed and cultured in a 28.5° C. incubator, a certain humidity was ensured in the culture environment. Culture medium containing a test compound was prepared, and the culture medium was added to a 96-well plate in advance, and each fertilized egg (by reference to the experimental method in OECD No. 212 document, fertilized eggs, which developed normally within 24 h after fertilization, were selected and subjected to exposure. Transparent fish eggs visible to naked eye were normally fertilized, while white fish eggs were dead and discarded. After the selection, the normally fertilized eggs had begun to divide as observed under microscope) was then independently placed in a different well, and cultured in the culture medium containing a test compound at a different concentration. Embryo development status at different stages were observed and photographed with invert microscope, including:
I. Morphological observation: the developmental states of fertilized eggs (yolk being coagulated or not, eye spot, pericardial sac being edematous or not, bloodstream being existing or not, tail development status, and the like) were observed and photographed at 48 h, 72 h, and 96 h;
II. Hatching number and death number were counted at 72 h after fertilization, and hatching rate and mortality were calculated;
III. Body length of the hatched young fishes at 72 h was measured (measured after photographing with invert microscope); […]
(§1) V. Heartbeat of young fishes (times/min) was recorded at 72 h and 96 h after fertilization (Recording method: heartbeat of young fishes could be clearly observed under microscope, and the number of heartbeats was recorded for 30 s).

The test system of series [3] is zebrafish embryos. In kind it is in vivo. To be noted: for Death number (72 h) / Hatching number (72 h) / Unhatching number (72 h): n = 30. Here is the method:
Fertilized eggs (donated by Zebrafish Research Group, School of Life Sciences, Xiamen University) were incubated in freshly prepared zebrafish embryo culture medium, which was replaced by fresh culture medium every day, and cultured in 28.5° C. incubator. Pure water was placed in the incubator to ensure a certain humidity in the culture environment. The formulation for zebrafish embryo culture medium was following: 5 mM NaCl, 0.17 mM KCl, 0.33 mM CaCl2, 0.33 mM MgSO4, 10-5% methylene blue. The culture medium was prepared with pure water. For example, NaCl: 292.2 mg, KCl: 12.68 mg, CaCl2: 36.63 mg, MgSO4: 39.72 mg, and methylene blue: 0.1 μL were needed for the preparation of 1 L culture medium.
7 Groups were set for each test compound, including 5 experimental groups relating to the test compound at different concentrations (solutions containing the test compound at different concentrations were prepared by using zebrafish embryo culture medium, wherein the concentrations were 10 mg/L, 3 mg/L, 1 mg/L, 0.3 mg/L, 0.1 mg/L), 1 solvent control group (DMSO) and 1 blank control group. The positive control drug was OTC analgesic ibuprofen at concentrations as described above. A 96-well cell culture plate was used to perform the experiment, three wells in parallel were used for each experimental group, and 10 fish eggs were contained in each well.
Culture medium containing a test compound was prepared, and the culture medium was added to a 96-well plate in advance, and each fertilized egg (by reference to the experimental method in OECD No. 212 document, fertilized eggs, which developed normally within 2 h after fertilization, were selected and subjected to exposure. Transparent fish eggs visible to naked eye were normally fertilized, while white fish eggs were dead and discarded. After the selection, the normally fertilized eggs had begun to divide as observed under microscope) was then independently placed in a different well, and cultured in the culture medium containing a test compound at a different concentration. Embryo development status at different stages was observed and photographed with invert microscope, including: […]
II. Hatching number and death number were counted at 72 h after fertilization, and hatching rate and mortality were calculated; […]
as §1

Series [4] relates to SNI neuropathic pain. The series can be described thus: Neuropathic pain mouse model induced by spared nerve injury (SNI). The series is classed as in vivo, C57BL/6 mice. As to conditions: SNI mice, 10 mg/kg i.p. (gabapentin 100 mg/kg), 4 h after administration. Here is the method: In the Experimental example, compounds to be evaluated or compounds to be tested or test compounds used are the Compounds 1-46 prepared in the Examples according to the invention. In the Experimental example, all the agents for injection, including compounds to be evaluated or compounds to be tested or test compounds, and positive control drug, were dissolved in a mixed solvent of PEG400:Tween 80:normal saline (at a volume ratio of 5:5:90), at a concentration of 5 mg/mL.
Neuropathic pain mouse model induced by spared nerve injury (SNI) is a common animal model for studying neuropathic pain medically. The invention uses the model to evaluate the therapeutic effects of the compounds on neuropathic pain, wherein the model can represent peripheral neuropathic pain including, but not limited to post-herpetic neuralgia, pain caused by diabetic perineuropathy, neurothlipsis and exudation caused by tumor, lumbar surgery failure syndrome, neuropathic pain caused by lumbar disc protrusion, postpartum neuralgia, trigeminal neuralgia, chemotherapy-induced multiple neuropathic pain, post-radiotherapy plexopathy, and radicular neuralgia.
C57BL/6 mice (purchased from Shanghai SLAC Laboratory Animal Co., Ltd) were anesthetized by intraperitoneal injection with pentobarbital sodium (40 mg/kg), and skin from knee joint to gluteal region was subjected to skin preparation and disinfection. After the mice were fixed, the knee joint part was cut about 1 cm longitudinally with bistoury, and muscle tissues were separated by blunt dissection to expose sciatic nerve. The tibial and common peroneal nerve branches of sciatic nerve stem were cut off carefully, and the cut was then stitched up. The mice was placed in a clean observation cage. In the sham-operation group, only sciatic nerve was exposed without cutting the tibial and common peroneal nerve branches. From the day before the experiment to 24 h after the operation, the plantar edges of the mice were stimulated everyday by […] (Ugo Basile Company (Italy), Product ID: 37450), and data was collected automatically to obtain the threshold value of mice to mechanical stimulation. […] The positive control drug gabapentin was administered at a dose of 100 mg/kg. All the agents to be injected were dissolved in a mixed solvent of PEG400:Tween 80:normal saline (at a volume ratio of 5:5:90), at a concentration of 5 mg/mL. By comparing the threshold values (the acting force of when the mouse retracting the paw) at different administration time in different administration groups, the compound was evaluated for its analgesic effect on neuropathic pain.

Read-outs that look alike come from different tables or passages of the source. Marks after values point to notes of the source that are not given here.

For `COc1ccc2c(c1)c(CC(=O)O)c(C)n2C(=O)c1ccc(Cl)cc1` [indometacin, reference compound], the “Foot swelling degree after inflammation” value in series [1] (6 h) is 0.57 ± 0.16^c mL; in series [1] (12 h) it was 0.96 ± 0.21^c mL; in series [1] (18 h), 1.32 ± 0.22^b mL; in series [1] (24 h), 1.08 ± 0.26^c mL.
The corresponding values for `O=C(Cc1cccc(-c2ccccc2)c1)N1CCOC1=O` [Compound 14, 3-Biphenylacetyl Oxazolidinone] are 0.75 ± 0.11^c mL, 1.06 ± 0.19^c mL, 1.43 ± 0.25^b mL and 1.36 ± 0.18^b mL.
Consider `CC(C)Cc1ccc(C(C)C(=O)O)cc1` (centres unmarked) [ibuprofen, reference compound], for which the “Death number (72 h)” value in series [2] (0.01 mg/L) came to 0; in series [2] (0.1 mg/L) it was 0; in series [2] (1 mg/L), 2; in series [2] (10 mg/L) it was 30; in series [2] (100 mg/L), 30; in series [3] (0.1 mg/L) it was 8. Besides, the “Death number (72 h)” value was 8 in series [3] (0.3 mg/L), 13 in series [3] (1 mg/L), 28 in series [3] (3 mg/L) and 30 in series [3] (10 mg/L). The same compound came in with a mortality in series [2] (10 mg/L, 72 h) of 100%. Further, in series [2] (100 mg/L, 48 h), the “observation of zebrafish embryo development” value is recorded as “all the zebrafish embryos died”. Also, the “Body length (72 h)” value in series [2] (72 h, 0.01 mg/L) amounted to 3.97 ± 0.06 mm; in series [2] (72 h, 0.1 mg/L), 3.88 ± 0.15 mm; in series [2] (72 h, 1 mg/L) it was 3.97 ± 0.08 mm; in series [3] (0.1 mg/L), 3.94 ± 0.14 mm; in series [3] (0.3 mg/L), 3.95 ± 0.09 mm; in series [3] (1 mg/L) it was 3.77 ± 0.18 mm. The “Hatching number (72 h)” value in series [2] (72 h, 0.01 mg/L) is listed as 25; in series [2] (72 h, 0.1 mg/L), 22; in series [2] (72 h, 1 mg/L) it was 17; in series [2] (72 h, 10 mg/L) it was 0; in series [2] (72 h, 100 mg/L), 0; in series [3] (0.1 mg/L) it was 22. Moreover, the “Hatching number (72 h)” value in series [3] (0.3 mg/L) amounted to 20; in series [3] (1 mg/L), 17; in series [3] (3 mg/L), 0; in series [3] (10 mg/L), 0. In addition, the “Heartbeat (72 h)” value in series [2] (72 h, 0.01 mg/L) is listed as 125 ± 2.16 per min; in series [2] (72 h, 0.1 mg/L) it was 124 ± 2.25 per min; in series [2] (72 h, 1 mg/L) it was 124 ± 1.67 per min; in series [3] (0.1 mg/L), 125 ± 2.40 per min; in series [3] (0.3 mg/L), 125 ± 2.48 per min; in series [3] (1 mg/L), 126 ± 2.56 per min. Also, the “Unhatching number (72 h)” value in series [2] (72 h, 0.01 mg/L) is 5; in series [2] (72 h, 0.1 mg/L), 8; in series [2] (72 h, 1 mg/L) it was 11; in series [2] (72 h, 10 mg/L), 0; in series [2] (72 h, 100 mg/L) it was 0; in series [3] (0.1 mg/L), 0. For the same compound, the “Unhatching number (72 h)” value in series [3] (0.3 mg/L) is on record as 2; in series [3] (1 mg/L), 0; in series [3] (3 mg/L), 2; in series [3] (10 mg/L), 0. The hatching rate in series [2] (72 h, 1 mg/L) came to 56.7%; in series [2] (72 h, 10 mg/L), 0%; in series [3] (1 mg/L, 72 h), 56.67%.
`NCC1(CC(=O)O)CCCCC1` [gabapentin, reference compound]: the “effect of inhibiting central neuropathic pain” value in series [4] is “disappeared gradually”.

For orientation: mortality means the share of the test organisms that died. Low values mean a weak lethal effect, high ones a strong lethal effect.
